Experimental data from patent US7427601B2, “Method for treating tremor” (Schwarz Pharma AG, priority 2004, dated 2008).

Tested on: harmaline-induced tremors
Test: Harmaline-induced tremors in rats
Format: in vivo, Male Sprague-Dawley rats
Conditions: for Intensity of tremors after harmaline administration (score), Mean ± S.E.M.: scale 0 to 4
Procedure: Male Sprague-Dawley rats (Charles River Laboratories, France) were used. During the acclimatization period, animals were housed 2 per cage, in Makrolon type III cages, in the animal room (temperature: 20±2° C., humidity: minimum 45%, air changes: >12 per hour, light/dark cycle of 12 h/12 h [on at 7:00 A.M.]). Animals were allowed a minimum of 5 days period before experiment for acclimatization.
Harmaline HCl (Sigma) was diluted in saline and injected at 20 mg/kg, i.p. The reference compound, propanolol was injected i.p. at 20 mg/kg, 30 min before harmaline administration. SPM 927 was given i.p. at 3, 10 and 30 mg/kg, 30 min before harmaline administration.
The following parameters were assessed by an observer blind to the treatment of the animals. • Intensity: from 0 to 4 (0: no tremor, 1: mild tremor, 2: moderate intermittent tremor, 3: moderate persistent tremor, 4: pronounced severe tremor). Intensity will be scored every 30 min and for a total period of 120 min after harmaline administration. • Latency of onset • Total duration of tremor (max observation time: 120 min) • % rat displaying tremor

SMILES: COC[C@@H](NC(C)=O)C(=O)NCc1ccccc1 [SPM 927, (R)-2-acetamide-N-benzyl-3-methoxypropionamide]
- Intensity of tremors after harmaline administration (score), Mean ± S.E.M. (3 mg/kg i.p. 30 min before harmaline (20 mg/kg i.p.), +30 min): 2.0 ± 0.4 score
- Intensity of tremors after harmaline administration (score), Mean ± S.E.M. (3 mg/kg i.p. 30 min before harmaline (20 mg/kg i.p.), +60 min): 2.0 ± 0.3 score
- Intensity of tremors after harmaline administration (score), Mean ± S.E.M. (3 mg/kg i.p. 30 min before harmaline (20 mg/kg i.p.), +90 min): 2.1 ± 0.4 score
- Intensity of tremors after harmaline administration (score), Mean ± S.E.M. (3 mg/kg i.p. 30 min before harmaline (20 mg/kg i.p.), +120 min): 1.8 ± 0.4 score
- Intensity of tremors after harmaline administration (score), Mean ± S.E.M. (10 mg/kg i.p. 30 min before harmaline (20 mg/kg i.p.), +30 min): 2.0 ± 0.2 score
- Intensity of tremors after harmaline administration (score), Mean ± S.E.M. (10 mg/kg i.p. 30 min before harmaline (20 mg/kg i.p.), +60 min): 1.1 ± 0.3 score
- Intensity of tremors after harmaline administration (score), Mean ± S.E.M. (10 mg/kg i.p. 30 min before harmaline (20 mg/kg i.p.), +90 min): 2.2 ± 0.4 score
- Intensity of tremors after harmaline administration (score), Mean ± S.E.M. (10 mg/kg i.p. 30 min before harmaline (20 mg/kg i.p.), +120 min): 1.3 ± 0.3 score
- Intensity of tremors after harmaline administration (score), Mean ± S.E.M. (30 mg/kg i.p. 30 min before harmaline (20 mg/kg i.p.), +30 min): 0.9 ± 0.4 score
- Intensity of tremors after harmaline administration (score), Mean ± S.E.M. (30 mg/kg i.p. 30 min before harmaline (20 mg/kg i.p.), +60 min): 1.1 ± 0.3 score
- Intensity of tremors after harmaline administration (score), Mean ± S.E.M. (30 mg/kg i.p. 30 min before harmaline (20 mg/kg i.p.), +90 min): 1.4 ± 0.3 score
- Intensity of tremors after harmaline administration (score), Mean ± S.E.M. (30 mg/kg i.p. 30 min before harmaline (20 mg/kg i.p.), +120 min): 1.2 ± 0.2 score
- intensity of harmaline-induced tremors (in words) (given at 3, 10 and 30 mg/kg): reduced the intensity of harmaline-induced tremors in a dose dependent manner
- maximal efficacy on tremor intensity compared with propranolol (in words) (highest dose tested (30 mg/kg) versus propranolol 20 mg/kg): higher than that of the positive reference compound propranolol
- intensity of harmaline-induced tremor (in words) (rats, summary statement): reduced
- latency of tremor onset following harmaline injection (in words) (rats, summary statement): markedly increased
- total duration of harmaline-induced tremor (in words) (rats, summary statement): reduced

SMILES: CC(C)NCC(O)COc1cccc2ccccc12 (stereo not shown) [Propranolol, reference compound]
- Intensity of tremors after harmaline administration (score), Mean ± S.E.M. (20 mg/kg i.p. 30 min before harmaline (20 mg/kg i.p.), +30 min): 1.6 ± 0.2 score
- Intensity of tremors after harmaline administration (score), Mean ± S.E.M. (20 mg/kg i.p. 30 min before harmaline (20 mg/kg i.p.), +60 min): 2.3 ± 0.3 score
- Intensity of tremors after harmaline administration (score), Mean ± S.E.M. (20 mg/kg i.p. 30 min before harmaline (20 mg/kg i.p.), +90 min): 1.6 ± 0.3 score
- Intensity of tremors after harmaline administration (score), Mean ± S.E.M. (20 mg/kg i.p. 30 min before harmaline (20 mg/kg i.p.), +120 min): 1.4 ± 0.3 score
- intensity of tremors (in words) (20 mg/kg, each time-point of observation): reduced the intensity of tremors in a statistically significant manner
